By Ki is commonly meant a measure of affinity in units of concentration, obtained from inhibition or displacement. By IC50 is commonly meant the midpoint of a concentration-inhibition curve. For orientation: EC50 means the concentration that produces a half-maximal response.

Assay type in all cases: functional
In assay [1] the target is Calcium/calmodulin-dependent protein kinase type II subunit beta (Homo sapiens, UniProt Q13554).
In assay [2] the target is G protein-coupled receptor kinase 5 (Homo sapiens, UniProt P34947). The assay is described as follows: Navigating the Kinome. Panel member name: GPRK5.
For assay [3], the target named is Protein kinase C zeta type (Homo sapiens, UniProt Q05513).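 Further: measured as one member of a broad kinase profiling panel.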
Assay [4] addresses Mitogen-activated protein kinase 13 (Homo sapiens, UniProt O15264).
Assay [5] deals with Eukaryotic elongation factor 2 kinase (Homo sapiens, UniProt O00418).
Assay [6] deals with LIM domain kinase 1 (Homo sapiens, UniProt P53667). The assay is described as follows: Navigating the Kinome. Panel member name: LIMK1.
Assay [7] concerns the target High affinity nerve growth factor receptor (Homo sapiens, UniProt P04629).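 Further: NTRK1 tested as one member of a kinome-wide profiling panel.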
For assay [8], the target named is T1, Sentrin-specific protease 8 (Homo sapiens, UniProt Q96LD8).
T1 sequence (Q96LD8 whole entry): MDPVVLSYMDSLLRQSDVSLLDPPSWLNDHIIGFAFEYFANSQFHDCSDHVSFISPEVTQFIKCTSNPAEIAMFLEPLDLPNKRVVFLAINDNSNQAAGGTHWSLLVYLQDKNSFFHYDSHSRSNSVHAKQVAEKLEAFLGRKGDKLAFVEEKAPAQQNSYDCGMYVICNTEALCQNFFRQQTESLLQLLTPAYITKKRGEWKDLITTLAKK

Assay [9] addresses T1, Sentrin-specific protease 8. This is another data set of the same source.
In assay [10] the test system is H4. The assay is described as follows: Luminescence Cell-Based Dose Response HTS to Identify Activators of 5'UTR Stem-Loop Driven Prion Protein mRNA Translation in H4 Neuroglioblastoma Cells. [Related pubchem assays: 1829 (Project Summary), 1814 (Primary HTS)]. The settings on record: Homo sapiens.
In assay [11] the target is Proto-oncogene tyrosine-protein kinase Src (Homo sapiens, UniProt P12931).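 Further: SRC entry within a kinome-wide kinase profiling panel.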
Assay [12] deals with Tyrosine-protein kinase ITK/TSK (Homo sapiens, UniProt Q08881).
For assay [13], the target named is Serine/threonine-protein kinase BRSK1 (Homo sapiens, UniProt Q8TDC3).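 Further: measured within a kinome-wide kinase panel, with the target listed as KIAA1811.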
The target of assay [14] is Protein kinase C delta type (Homo sapiens, UniProt Q05655).
Assay [15] deals with Mitogen-activated protein kinase 12 (Homo sapiens, UniProt P53778).
In assay [16] the target is RAC-gamma serine/threonine-protein kinase (Homo sapiens, UniProt Q9Y243).
Assay [17] addresses Ephrin type-A receptor 2 (Homo sapiens, UniProt P29317).
Assay [18] addresses Serine/threonine-protein kinase D2 (Homo sapiens, UniProt Q9BZL6).
The target of assay [19] is Testis-specific serine/threonine-protein kinase 1 (Homo sapiens, UniProt Q9BXA7).
Assay [20] deals with Mitogen-activated protein kinase kinase kinase kinase 5 (Homo sapiens, UniProt Q9Y4K4).
Assay [21] addresses Non-receptor tyrosine-protein kinase TYK2 (Homo sapiens, UniProt P29597).
Assay [22] has as its target Serine/threonine-protein kinase 17A (Homo sapiens, UniProt Q9UEE5).
For assay [23], the target named is Tyrosine-protein kinase Fer (Homo sapiens, UniProt P16591).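 Further: FER tested as one member of a kinome panel.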
For assay [24], the target named is Tyrosine-protein kinase ABL1 (Homo sapiens, UniProt P00519).
The target of assay [25] is STE20-like serine/threonine-protein kinase (Homo sapiens, UniProt Q9H2G2).
Assay [26] concerns the target Insulin-like growth factor 1 receptor (Homo sapiens, UniProt P08069). Nature of the assay: Navigating the Kinome. Panel member name: IGF1R.
The target in assay [27] is Protein-tyrosine kinase 6 (Homo sapiens, UniProt Q13882).
Assay [28] addresses Tyrosine-protein kinase FRK (Homo sapiens, UniProt P42685).
Assay [29] has as its target cGMP-dependent protein kinase 1 (Homo sapiens, UniProt Q13976).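 Further: value from a kinome panel screen with PRKG1 as the panel member.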
Assay [30] addresses Phosphorylase b kinase gamma catalytic chain, liver/testis isoform (Homo sapiens, UniProt P15735).
Assay [31] addresses Mast/stem cell growth factor receptor Kit (Homo sapiens, UniProt P10721).
The target of assay [32] is Insulin receptor (Homo sapiens, UniProt P06213).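 Further: insulin receptor kinase tested as one member of a kinome-wide kinase panel.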
In assay [33] the target is Cyclin-dependent kinase 1 (Homo sapiens, UniProt P06493).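 Further: Kinome-wide panel profiling, with the target listed as panel member CDC2.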
For assay [34], the target named is Calcium/calmodulin-dependent protein kinase type II subunit gamma (Homo sapiens, UniProt Q13555).
Assay [35] concerns the target RAC-alpha serine/threonine-protein kinase (Homo sapiens, UniProt P31749).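 Further: AKT1 affinity measured as one member of a kinome-wide kinase profiling panel.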
The target of assay [36] is MAP/microtubule affinity-regulating kinase 3 (Homo sapiens, UniProt P27448).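 Further: MARK3 affinity measured as one member of a kinome panel.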
Assay [37] concerns the target Interleukin-1 receptor-associated kinase 4 (Homo sapiens, UniProt Q9NWZ3).
Assay [38] addresses Serine/threonine-protein kinase Nek4 (Homo sapiens, UniProt P51957).
Assay [39] addresses MAP kinase-activated protein kinase 2 (Homo sapiens, UniProt P49137).
Assay [40] addresses Maternal embryonic leucine zipper kinase (Homo sapiens, UniProt Q14680).
For assay [41], the target named is BDNF/NT-3 growth factors receptor (Homo sapiens, UniProt Q16620).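 Further: NTRK2 measured as one member of a broad kinome-wide kinase profiling panel.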
For assay [42], the target named is Ribosomal protein S6 kinase beta-1 (Homo sapiens, UniProt P23443).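 Further: measured as one member of a kinome-wide profiling panel.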
Assay [43] concerns the target Interleukin-1 receptor-associated kinase 1 (Homo sapiens, UniProt P51617).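 Further: IRAK1 tested as one member of a kinome panel.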

Calls of active or inactive are those of the source.

Chain of Tyrosine-protein kinase ABL1 (P00519 whole entry): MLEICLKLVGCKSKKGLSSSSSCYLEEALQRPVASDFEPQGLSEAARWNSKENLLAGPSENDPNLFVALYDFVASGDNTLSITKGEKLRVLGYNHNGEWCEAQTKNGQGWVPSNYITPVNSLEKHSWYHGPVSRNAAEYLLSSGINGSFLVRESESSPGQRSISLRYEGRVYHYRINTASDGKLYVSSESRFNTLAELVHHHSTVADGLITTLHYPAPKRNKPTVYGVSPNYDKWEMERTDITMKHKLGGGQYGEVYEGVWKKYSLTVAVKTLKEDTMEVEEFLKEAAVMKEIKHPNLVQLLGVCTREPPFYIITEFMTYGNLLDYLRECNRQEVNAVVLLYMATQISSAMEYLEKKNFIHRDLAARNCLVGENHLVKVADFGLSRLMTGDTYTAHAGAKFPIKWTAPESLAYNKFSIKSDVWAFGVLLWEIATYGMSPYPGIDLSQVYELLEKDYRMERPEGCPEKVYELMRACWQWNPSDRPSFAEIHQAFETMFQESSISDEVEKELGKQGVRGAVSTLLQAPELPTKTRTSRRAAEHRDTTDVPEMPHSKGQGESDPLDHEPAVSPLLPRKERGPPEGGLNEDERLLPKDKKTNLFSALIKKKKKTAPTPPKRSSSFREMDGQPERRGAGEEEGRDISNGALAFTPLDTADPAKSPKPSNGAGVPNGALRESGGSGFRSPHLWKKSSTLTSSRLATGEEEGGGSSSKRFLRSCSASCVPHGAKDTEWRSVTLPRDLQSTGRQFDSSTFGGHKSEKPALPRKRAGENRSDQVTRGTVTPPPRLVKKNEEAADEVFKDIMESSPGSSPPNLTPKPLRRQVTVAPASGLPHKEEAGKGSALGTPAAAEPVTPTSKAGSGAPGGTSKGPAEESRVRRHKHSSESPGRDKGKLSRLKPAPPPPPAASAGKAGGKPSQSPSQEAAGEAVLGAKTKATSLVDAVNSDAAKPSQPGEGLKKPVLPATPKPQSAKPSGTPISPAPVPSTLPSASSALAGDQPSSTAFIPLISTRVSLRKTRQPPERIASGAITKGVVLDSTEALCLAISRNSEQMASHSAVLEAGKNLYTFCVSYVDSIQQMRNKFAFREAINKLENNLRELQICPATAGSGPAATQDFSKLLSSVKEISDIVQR
Chain of Mast/stem cell growth factor receptor Kit (P10721 whole entry): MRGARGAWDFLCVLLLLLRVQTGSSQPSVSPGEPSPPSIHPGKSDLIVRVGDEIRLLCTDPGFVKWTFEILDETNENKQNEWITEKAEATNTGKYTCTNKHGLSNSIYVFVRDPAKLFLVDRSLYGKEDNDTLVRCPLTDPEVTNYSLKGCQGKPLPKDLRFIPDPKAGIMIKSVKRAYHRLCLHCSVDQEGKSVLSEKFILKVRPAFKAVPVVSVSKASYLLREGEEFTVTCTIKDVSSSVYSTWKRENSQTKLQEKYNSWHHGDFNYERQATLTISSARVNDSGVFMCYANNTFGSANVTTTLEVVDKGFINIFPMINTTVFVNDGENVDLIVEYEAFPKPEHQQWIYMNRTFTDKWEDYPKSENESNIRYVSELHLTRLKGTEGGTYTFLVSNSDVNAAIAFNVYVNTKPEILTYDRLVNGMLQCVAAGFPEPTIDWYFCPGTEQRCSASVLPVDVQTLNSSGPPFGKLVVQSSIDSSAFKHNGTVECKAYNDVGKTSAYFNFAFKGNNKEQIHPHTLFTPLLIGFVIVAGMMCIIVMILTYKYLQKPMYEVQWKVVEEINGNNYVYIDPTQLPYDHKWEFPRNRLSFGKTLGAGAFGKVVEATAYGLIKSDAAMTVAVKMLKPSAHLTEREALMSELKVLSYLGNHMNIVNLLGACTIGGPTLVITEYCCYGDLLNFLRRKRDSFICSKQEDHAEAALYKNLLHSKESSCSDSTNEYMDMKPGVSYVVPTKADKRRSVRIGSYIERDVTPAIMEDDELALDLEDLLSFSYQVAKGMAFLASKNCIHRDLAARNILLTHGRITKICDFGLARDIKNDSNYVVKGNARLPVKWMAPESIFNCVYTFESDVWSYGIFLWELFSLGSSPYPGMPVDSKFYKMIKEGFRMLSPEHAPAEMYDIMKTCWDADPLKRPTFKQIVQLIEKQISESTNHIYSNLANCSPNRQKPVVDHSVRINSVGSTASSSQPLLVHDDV
Chain of Serine/threonine-protein kinase 17A (Q9UEE5 whole entry): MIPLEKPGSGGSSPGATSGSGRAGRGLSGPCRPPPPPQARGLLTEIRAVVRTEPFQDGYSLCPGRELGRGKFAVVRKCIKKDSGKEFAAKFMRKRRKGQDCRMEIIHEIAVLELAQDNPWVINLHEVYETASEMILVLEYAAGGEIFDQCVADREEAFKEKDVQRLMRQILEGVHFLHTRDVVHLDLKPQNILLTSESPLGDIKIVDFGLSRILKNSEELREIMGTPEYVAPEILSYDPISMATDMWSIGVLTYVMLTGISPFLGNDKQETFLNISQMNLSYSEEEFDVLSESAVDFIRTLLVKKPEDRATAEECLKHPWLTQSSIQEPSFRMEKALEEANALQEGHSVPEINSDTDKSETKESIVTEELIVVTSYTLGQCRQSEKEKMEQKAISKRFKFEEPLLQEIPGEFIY
Chain of cGMP-dependent protein kinase 1 (Q13976 whole entry, canonical isoform): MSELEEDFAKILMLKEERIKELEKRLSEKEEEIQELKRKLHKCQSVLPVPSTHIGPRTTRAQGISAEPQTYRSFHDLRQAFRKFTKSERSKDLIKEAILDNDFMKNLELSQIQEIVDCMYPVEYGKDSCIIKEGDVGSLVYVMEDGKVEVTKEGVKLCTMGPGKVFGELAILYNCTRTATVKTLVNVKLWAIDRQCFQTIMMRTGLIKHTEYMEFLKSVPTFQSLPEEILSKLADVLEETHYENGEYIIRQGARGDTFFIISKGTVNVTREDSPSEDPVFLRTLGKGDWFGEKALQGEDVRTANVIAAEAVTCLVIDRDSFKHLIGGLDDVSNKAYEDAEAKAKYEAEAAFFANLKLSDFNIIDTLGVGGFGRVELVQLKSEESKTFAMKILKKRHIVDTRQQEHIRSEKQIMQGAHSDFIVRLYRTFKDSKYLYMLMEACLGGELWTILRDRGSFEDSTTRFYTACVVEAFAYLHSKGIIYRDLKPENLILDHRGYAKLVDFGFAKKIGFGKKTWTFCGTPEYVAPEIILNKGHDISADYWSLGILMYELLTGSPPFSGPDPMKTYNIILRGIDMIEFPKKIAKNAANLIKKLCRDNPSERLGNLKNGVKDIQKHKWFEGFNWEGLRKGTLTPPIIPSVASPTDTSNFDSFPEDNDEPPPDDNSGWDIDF
Chain of Serine/threonine-protein kinase Nek4 (P51957 whole entry): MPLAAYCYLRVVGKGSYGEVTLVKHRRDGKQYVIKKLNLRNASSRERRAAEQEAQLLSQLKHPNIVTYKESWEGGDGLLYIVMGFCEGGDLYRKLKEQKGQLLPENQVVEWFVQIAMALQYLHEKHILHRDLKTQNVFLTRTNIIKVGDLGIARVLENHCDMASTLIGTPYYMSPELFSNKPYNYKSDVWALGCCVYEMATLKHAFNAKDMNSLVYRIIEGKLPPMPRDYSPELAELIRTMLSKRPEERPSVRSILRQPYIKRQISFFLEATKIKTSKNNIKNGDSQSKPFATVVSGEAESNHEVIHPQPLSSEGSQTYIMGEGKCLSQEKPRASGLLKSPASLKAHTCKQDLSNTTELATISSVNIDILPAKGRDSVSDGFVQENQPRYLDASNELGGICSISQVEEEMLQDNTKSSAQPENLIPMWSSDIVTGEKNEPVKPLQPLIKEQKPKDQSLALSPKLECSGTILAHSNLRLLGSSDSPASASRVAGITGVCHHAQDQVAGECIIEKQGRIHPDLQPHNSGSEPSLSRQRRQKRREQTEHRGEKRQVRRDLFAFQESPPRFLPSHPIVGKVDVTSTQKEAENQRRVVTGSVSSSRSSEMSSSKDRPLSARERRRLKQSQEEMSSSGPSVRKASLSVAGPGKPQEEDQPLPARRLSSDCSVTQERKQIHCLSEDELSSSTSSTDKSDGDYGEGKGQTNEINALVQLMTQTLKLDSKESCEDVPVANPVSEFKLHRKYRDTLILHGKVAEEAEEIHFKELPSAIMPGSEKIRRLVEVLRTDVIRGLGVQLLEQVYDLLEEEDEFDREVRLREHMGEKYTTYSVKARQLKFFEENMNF
Chain of Ephrin type-A receptor 2 (P29317 whole entry): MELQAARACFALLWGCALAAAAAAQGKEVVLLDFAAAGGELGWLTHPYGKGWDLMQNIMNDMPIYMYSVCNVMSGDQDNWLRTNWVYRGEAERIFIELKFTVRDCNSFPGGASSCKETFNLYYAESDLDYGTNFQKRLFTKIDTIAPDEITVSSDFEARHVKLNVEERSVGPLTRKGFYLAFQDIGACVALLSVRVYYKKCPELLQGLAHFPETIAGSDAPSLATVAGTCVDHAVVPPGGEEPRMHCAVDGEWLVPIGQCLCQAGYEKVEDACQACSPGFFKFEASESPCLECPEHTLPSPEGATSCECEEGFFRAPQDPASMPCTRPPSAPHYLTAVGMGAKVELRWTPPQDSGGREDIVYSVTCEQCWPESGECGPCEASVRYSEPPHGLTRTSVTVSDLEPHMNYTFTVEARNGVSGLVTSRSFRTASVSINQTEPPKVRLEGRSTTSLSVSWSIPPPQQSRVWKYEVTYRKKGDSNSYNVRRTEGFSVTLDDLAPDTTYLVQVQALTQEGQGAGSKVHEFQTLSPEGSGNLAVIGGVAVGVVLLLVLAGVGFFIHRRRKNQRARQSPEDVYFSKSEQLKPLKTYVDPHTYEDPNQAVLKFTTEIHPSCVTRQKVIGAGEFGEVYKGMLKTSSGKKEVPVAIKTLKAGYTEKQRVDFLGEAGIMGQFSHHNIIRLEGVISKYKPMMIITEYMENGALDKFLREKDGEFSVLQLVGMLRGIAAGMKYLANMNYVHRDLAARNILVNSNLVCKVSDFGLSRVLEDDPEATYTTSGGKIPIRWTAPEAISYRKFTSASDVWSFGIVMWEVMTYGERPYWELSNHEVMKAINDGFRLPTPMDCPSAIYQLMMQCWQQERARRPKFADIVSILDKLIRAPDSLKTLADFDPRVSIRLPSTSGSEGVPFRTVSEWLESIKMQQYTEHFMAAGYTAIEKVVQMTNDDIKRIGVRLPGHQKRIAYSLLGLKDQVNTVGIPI

As for `COC(C(=O)N1Cc2[nH]nc(NC(=O)c3ccc(N4CCN(C)CC4)cc3)c2C1)c1ccccc1` (stereo not drawn), the Ki is 7.94 µM (active) in [1]; > 3.98 µM (inactive) in assay [2]; > 7.94 µM (inactive) in assay [3]; > 7.94 µM (inactive) in assay [4]; > 3.98 µM (inactive) in assay [5].

For `CC(C)(O)c1cn(-c2ccc3[nH]ncc3c2)nn1`, the inhibition constant (Ki) was 15.8 µM (active) in assay [6] and 79.4 µM (active) in assay [7].

Consider `O=C1C2=[N+]([O-])[C@H]3CCCC[C@H]3[N+]([O-])=C2c2ccccc21`, for which the results for the IC50 in [8] and in assay [9] were 21.5 µM (active) and 5.98 µM (active), respectively. Also, the EC50 in [10] was 23.5 µM (active).

As to `NC1CCC(Nc2nccc(-c3c[nH]c4ncccc34)n2)CC1` (stereo not drawn), the Ki in assay [11] was > 2 µM (inactive); in assay [12], 631 nM (active); in assay [13] it was 5.01 µM (active); in assay [14] it was 3.16 nM (active); in assay [15] it was 794 nM (active); in [16] it was 631 nM (active). Moreover, the Ki was > 3.16 µM (inactive) in [17]; 25.1 nM (active) in [18]; 63.1 nM (active) in assay [19]; 25.1 nM (active) in assay [20]; 794 nM (active) in assay [21]; 31.6 nM (active) in assay [22]. Besides, the Ki was 1 µM (active) in assay [23]; > 631 nM (inactive) in [24]; 398 nM (active) in assay [25]; > 2 µM (inactive) in [26]; > 2.51 µM (inactive) in [27]; 501 nM (active) in [28]. For the same compound, the Ki in [29] was 100 nM (active); in assay [30], 100 nM (active); in [31] it was > 1.26 µM (inactive); in [32] it was 501 nM (active); in [33] it was 6.31 nM (active); in [34], 3.98 nM (active). Besides, the Ki is 1.26 µM (active) in [35]; 50.1 nM (active) in [36]; 50.1 nM (active) in assay [37]; 2 µM (active) in assay [38]; 794 nM (active) in [39]; 126 nM (active) in assay [40]. Further, the Ki in [41] is > 5.01 µM (inactive); in [42], 501 nM (active); in assay [43] it was 126 nM (active).

The record behind these values is ChEMBL document CHEMBL1201862, “PubChem BioAssay data set” (2004).
